This is an account of results in ChEMBL document CHEMBL5584202, “Identification of benzothiazoles as novel PCSK9 inhibitors” (Bioorg Med Chem Lett, 2024).

Activity calls are given as the source filed them. No cut-off for these calls is given here.

The subject of assay [1] is HepG2. Description: Downregulation of PCSK9 protein level in human HepG2 cells by Western blotting analysis. It is filed as functional, cell-based. (A western blot detects proteins with antibodies after separation by electrophoresis.)
Assay [2] has as its system HepG2. Description: Downregulation of LDLR protein level in human HepG2 cells by Western blotting analysis. Type of assay: functional, cell-based.

Consider `CC(C)(C)OC(=O)N1CCN(Cc2ccc3nc(NC(=O)c4ccc(S(=O)(=O)NCCC#N)cc4)sc3c2)CC1`, for which the result with HepG2 [1] and in the assay with HepG2 [2] was Active.
